Measured values: patent US9856270B2, “Dolutegravir salts” (Ratiopharm GmbH, priority 2013, dated 2018)
Where a name gives a salt, the structure may show the parent alone. Each block holds one compound with its values, some of them ahead of it.

Legend:
Type in all cases: physicochemical
[1] = Storage stability of solid state forms (polymorphic conversion, XRPD)
[2] = Determination of the dissolution, 1st experiment (approx. 350 mg in 5 ml solvent, 37° C., approx. 500 rpm, HPLC/UV); conditions: for concentration: 37° C.
Protocol: (§1) In the following examples, anhydrous Dolutegravir Na as disclosed in WO2010068253 is employed.
(§2) Approx. 350 mg test substance was weighed into a glass vial, followed by addition of 5 ml solvent. A stirring bar was added, the vial was fixed in a water bath at 37° C. and the suspension was stirred with approx. 500 rpm. After 1 h and 24 h, samples were withdrawn, filtered through a 0.2 μm disposable filter, 50 μl of the clear filtrate were diluted with 950 μl DMSO and 2 μl thereof were analyzed by HPLC/UV.
(§3) HPLC/UV-Method for Quantification of Dolutegravir • Instrument: Agilent 1200 (G3324) • Method: DOLUTEGRAVIR-SOL-G3324.M • Column: YMC Triart C18, 100*3.0 mm, 3.0μ • Flow: 0.6 ml/min. • Temperature: 40.0° C. • Eluent • A: acetonitrile • B: 0.2% formic acid+0.1% Heptafluorobutyric acid (HFBA)
(§4) A calibration curve was established by linear regression analysis of concentration/peak area data pairs obtained by twofold analysis of a set of calibration solutions containing dolutegravir at concentrations between 10 μg/ml and 1,000 μg/ml. In case that the peak area of dolutegravir in an analyzed sample exceeded the upper limit of the calibration range, the sample was diluted and re-analyzed.

[3] = Dissolution profile of tablet formulations (900 ml 0.1 N HCl, paddle, 100 rpm, 37° C.); conditions: tablets, FIG. 24
Protocol: The dissolution profile of the above potassium salt formulation in 900 ml of 0.1 N HCl, paddle (no sinker) at 100 rpm, 37° C. was tested. An aqueous solution comprising Pharmacoat 603 was prepared. The active, Granulac 200, SDS, Avicel PH 101 and Ac-Di-Sol were granulated with the before prepared solution. The obtained granules were sieved through 1650 μm mesh size and subsequently dried at 40° C. After sieving the dried granules through 630 μm mesh size, Prosolv and Ac-Di-Sol were added. The mixture was blended for 10 minutes in a Turbula […] tumble mixer. After addition of Magnesium stearate, blending was continued for 3 minutes. Finally, the blend was compressed into tablets on an eccentric press Ek0 with a 9 mm tablet punch. The dissolution profile of the above sodium salt formulation in 900 ml of 0.1 N HCl, paddle (no sinker) at 100 rpm, 37° C. was tested.

[4] = Determination of the dissolution, 2nd experiment (approx. 210 mg in 3 ml solvent, 37° C., approx. 250 rpm, HPLC/UV)
Protocol: as §1
as §2, with “Approx. 210” for “Approx. 350”, “of 3” for “of 5”, “approx. 250” for “approx. 500”, “After 5, 15” for “After 1 h”, “and 60 min,” for “and 24 h,”
as §3, §4

[5] = solvent 50 mM KH2PO4, pH 6.8, 5 min, potassium salt
[6] = solvent 50 mM KH2PO4, pH 6.8, 15 min, potassium salt
[7] = solvent 50 mM KH2PO4, pH 6.8, 60 min, potassium salt
[8] = solvent 0.1 N HCl, 5 min, potassium salt
[9] = solvent 0.1 N HCl, 15 min, potassium salt
[10] = solvent 0.1 N HCl, 60 min, potassium salt
[11] = solvent demineralized water, 5 min, potassium salt
[12] = solvent demineralized water, 15 min, potassium salt
[13] = solvent demineralized water, 60 min, potassium salt

stable under storage condition (time) ([1]; 40° C./75% RH): at least 12 weeks
concentration [4, 5]: 39100 µg/mL
concentration [4, 6]: 40900 µg/mL
concentration [4, 7]: 60100 µg/mL
concentration [4, 8]: 300 µg/mL
concentration [4, 9]: 21260 µg/mL
concentration [4, 10]: 15400 µg/mL
concentration [4, 11]: 55600 µg/mL
concentration [4, 12]: 55100 µg/mL
concentration [4, 13]: 62300 µg/mL
SMILES: C[C@@H]1CCO[C@H]2Cn3cc(C(=O)NCc4ccc(F)cc4F)c(=O)c(O)c3C(=O)N12 [Dolutegravir-K (amorphous), Dolutegravir potassium salt]

concentration ([2]; solvent 20 mM Sodium acetate (NaAc) pH 4.5, 1 h): 595 µg/mL
concentration ([2]; solvent 20 mM Sodium acetate (NaAc) pH 4.5, 24 h): 634 µg/mL
concentration ([2]; solvent 50 mM KH2PO4 pH 6.8, 1 h): 894 µg/mL
concentration ([2]; solvent 50 mM KH2PO4 pH 6.8, 24 h): 918 µg/mL
concentration ([2]; solvent 0.1M HCl pH1.2, 1 h): 84 µg/mL
concentration ([2]; solvent 0.1M HCl pH1.2, 24 h): 412 µg/mL
concentration ([4]; solvent 50 mM KH2PO4, pH 6.8, 5 min): 270 µg/mL
concentration ([4]; solvent 50 mM KH2PO4, pH 6.8, 15 min): 1190 µg/mL
concentration ([4]; solvent 50 mM KH2PO4, pH 6.8, 60 min): 1240 µg/mL
concentration ([4]; solvent 0.1 N HCl, 5 min, listed as Dolutegravir-Na (anhydrous)): 330 µg/mL
concentration ([4]; solvent 0.1 N HCl, 15 min, listed as Dolutegravir-Na (anhydrous)): 420 µg/mL
concentration ([4]; solvent 0.1 N HCl, 60 min, listed as Dolutegravir-Na (anhydrous)): 400 µg/mL
concentration ([4]; solvent demineralized water, 5 min): 3300 µg/mL
concentration ([4]; solvent demineralized water, 15 min): 3430 µg/mL
concentration ([4]; solvent demineralized water, 60 min): 3500 µg/mL
SMILES: C[C@@H]1CCO[C@H]2Cn3cc(C(=O)NCc4ccc(F)cc4F)c(=O)c(O)c3C(=O)N12 [Dolutegravir-Na, reference compound]

The next lines start with the compound.

SMILES: C[C@@H]1CCO[C@H]2Cn3cc(C(=O)NCc4ccc(F)cc4F)c(=O)c(O)c3C(=O)N12 [Dolutegravir potassium form IV, Dolutegravir potassium salt]
stable upon storage (time) ([1]; 45° C./75% relative humidity): at least 8 weeks

SMILES: C[C@@H]1CCO[C@H]2Cn3cc(C(=O)NCc4ccc(F)cc4F)c(=O)c(O)c3C(=O)N12 [Dolutegravir potassium salt]
dissolution compared to the sodium salt ([2]; under certain conditions as depicted in Example 9): improved dissolution
dissolution rate of a pharmaceutical composition compared to the sodium salt [3]: faster and/or higher dissolution rate

SMILES: C[C@@H]1CCO[C@H]2Cn3cc(C(=O)NCc4ccc(F)cc4F)c(=O)c(O)c3C(=O)N12 [Dolutegravir-K (Form VI), Dolutegravir potassium salt]
concentration ([2]; solvent 20 mM Sodium acetate (NaAc) pH 4.5, 1 h, potassium salt): 21770 µg/mL
concentration ([2]; solvent 20 mM Sodium acetate (NaAc) pH 4.5, 24 h, potassium salt): 16930 µg/mL
concentration ([2]; solvent 50 mM KH2PO4 pH 6.8, 1 h, potassium salt): 32580 µg/mL
concentration ([2]; solvent 50 mM KH2PO4 pH 6.8, 24 h, potassium salt): 33440 µg/mL
concentration ([2]; solvent 0.1M HCl pH1.2, 1 h, potassium salt): 20350 µg/mL
concentration ([2]; solvent 0.1M HCl pH1.2, 24 h, potassium salt): 20270 µg/mL

SMILES: C[C@@H]1CCO[C@H]2Cn3cc(C(=O)NCc4ccc(F)cc4F)c(=O)c(O)c3C(=O)N12 [Dolutegravir-K (Form VII), Dolutegravir potassium salt]
stable under storage conditions (time) ([1]; 25° C. and 60% RH, 30° C. and 65% RH and 40° C. and 75% RH): at least 8 weeks
concentration [4, 5]: 22000 µg/mL
concentration [4, 6]: 23900 µg/mL
concentration [4, 7]: 23300 µg/mL
concentration [4, 8]: 80 µg/mL
concentration [4, 9]: 23780 µg/mL
concentration [4, 10]: 25930 µg/mL
concentration [4, 11]: 39500 µg/mL
concentration [4, 12]: 44000 µg/mL
concentration [4, 13]: 44100 µg/mL
